Laboratory results from paper PMC12677599 (Advanced Science, 2025).
Where two headings read alike, the source gives them in different places. Where a SMILES comes first, the peptide text is derived from it. [ ]: non-standard residue; d: D form. The star is where a group is joined. PEG4 = NCCOCCOCCOCCOCCC(=O)O; Piperidide = C1CCN(*)CC1

How the values were obtained:
H460 cell line = assay: cells; format: cell-based
Method: (§1) MTT assay was conducted as previously described.^[ [44] ^] Tumor cell lines (NCI‐H460, NCI‐H838, HT‐1080, MCF‐7, PC‐3, U‐251‐MG, and U‐87 MG) were seeded in 96‐well plates at a density of 8000 cells per well in a volume of 100 µL and cultured for 24 h. Normal cell lines (HaCaT, HMEC‐1, MRC‐5, and HEK‐293) were seeded in 96‐well plates at a density of 10 000 cells per well in a volume of 100 µL and cultured for 48 h. After that, only tumor cell lines were starved with 100 µL of SFM for a further 4–6 h. Subsequently, cells were treated with 100 µL of compound solutions with different concentrations for 24 h. Cells treated with SFM and 0.5% DMSO in SFM served as blank control and growth control, respectively. Ten µL of MTT solution (5 mg mL^−1) was added to each well, followed by an additional incubation period of 2 h for tumor cells and 4 h for normal cells. Finally, the solvent in each well was swapped with 100 µL of DMSO to dissolve the formazan crystals. The absorbance was measured by the plate reader at 570 nm.
(§2) The cell viability was calculated (1) Cellviability%=ODSamplegroup−ODBlank/ODGrowthgroup−ODBlank×100%

HEK-293 normal cell line = assay: cells; format: cell-based
Method: as §1, §2

H460 cells [1] = assay: LDH release assay; format: cell-based; details: H460, 4 h dosing at each IC50 value; n = 3
Method: The seeding and starvation process were the same as cell antiproliferation evaluation. Cells were treated with 100 µL of compound solutions with different concentrations (compound 266 was tested at 12 µM) for 4 or 24 h. Cells treated with 0.5% DMSO in SFM and 1% Triton X‐100 in SFM served as blank control and positive control, respectively. Afterward, LDH working solution was prepared according to the instructions of the Cytotoxicity Detection Kit (LDH). Fifty µL of supernatant was transferred to another 96‐well plate, and 50 µL of LDH working solution was added to each well, followed by a 40 min incubation at room temperature. Subsequently, the absorbance of each well was measured by the plate reader at 490 nm.
The LDH release ratio was calculated as (3) LDHrelease%=ODSamplegroup−ODBlank/ODPositivegroup−ODBlank×100%

H460 cells [2] = assay: Killing rate evaluation, calcein-AM/PI double staining; format: cell-based; details: IC50 concentration, n = 2
Method: Calcien‐AM/PI double staining assay was used. NCI‐H460 cells were seeded in a chamber‐slide (154526, Thermo Fisher Scientific) at a density of 100 000 cells per unit in a volume of 500 µL and cultured for 24 h. After starvation with 300 µL of SFM for 4 h, cells were treated with 500 µL of compound solutions with different concentrations for 2, 4, 6, 8, 10 h, respectively. Cells treated with 0.5% DMSO in SFM served as control group. Subsequently, cells in each unit were washed with EBSS once, and incubated with 500 µL of 2 µg mL^−1 calcien‐AM solution at 37 °C for 20 min. Afterward, cells were stained with 500 µL of 2 µg mL^−1 PI solution at room temperature for 15 min and washed with EBSS 3 times. Finally, 300 µL of EBSS was added into each unit. Live (green fluorescence from calcein‐AM) and dead (red fluorescence from PI) cells were then observed and imaged under a fluorescence microscope (LEICA Dmi8). This evaluation was conducted with two biological replicates. Quantitative analyses of living cells were processed with ImageJ software (threshold set: 8‐255).

H838 cell line = format: cell-based; details: 24 h
Method: as §1, §2

HMEC-1 normal cell line = format: cell-based; details: 24 h
Method: as §1, §2

HT-1080 cell line = format: cell-based; details: 24 h
Method: as §1, §2

HaCaT normal cell line = format: cell-based; details: 24 h
Method: as §1, §2

MRC-5 normal cell line = format: cell-based; details: 24 h
Method: as §1, §2

[3] = system: 5-Fluorouracil-resistance H460 cell line; format: cell-based; details: 24 h
Method: as §1
(§3) Wild type H460 cells were cultured in a T‐75 flask and exposed to 30 µM of cisplatin. Cells were passed when the confluency reached 90%. The IC50 value of cisplatin on this cell line was evaluated every two passages. After the IC50 value was higher than 500 µM, the cultured medium was changed to normal CGM, and the cell line was cultured for another three passages. The IC50 value was evaluated again to make sure the resistance was stable. The other three resistance cell lines establishment process was similar. […] Parental NCI‐H460 cells were exposed to 10 µM 5‐fluorouracil, 2.5 µM paclitaxel, or 2.5 µM etoposide to generate 5‐fluorouracil‐resistant, paclitaxel‐resistant, and etoposide‐resistant cell lines, respectively.

[4] = system: Cisplatin-resistance H460 cell line; format: cell-based; details: 24 h
Method: as §1, §3

[5] = system: Etoposide-resistance (DR-EPT) H460 cell line; format: cell-based; details: 24 h
Method: as §1, §3

[6] = system: Paclitaxel-resistance (DR-PTX) H460 cell line; format: cell-based; details: 24 h
Method: as §1, §3

[7] = system: matrix-metalloproteinase (MMP); assay: MMP cleavage detection in H460 condition medium; format: in vitro ADME; details: 50 µM in condition or control medium, HPLC and MS, n = 2
Method: NCI‐H460 cells were seeded in 48‐well plates at a density of 24 000 cells per well in a volume of 300 µL and cultured for 24 h. Afterward, 300 µL of SFM was added to each well followed by a 10 h incubation. Next, the supernatant of each well was transferred to 1.5 mL tubes. The supernatant of control group was incubated at 60 °C for 30 min (control medium) while the supernatant of dosing group (condition medium) had no incubation. […] Last, 150 µL of samples were analyzed by analytical HPLC and ESI‐MS. HPLC condition: gradient: 100% solution A from 0 to 5 min and 100% solution A to 0% solution A from 5 to 65 min; flow rate: 1 mL min^−1; detector wavelength: 214 nm. Each sample had two replicates.

In the case of `COc1cc([C@@H]2c3cc4c(cc3[C@@H](O[C@@H]3O[C@@H]5CO[C@@H](C)O[C@H]5[C@H](O)[C@H]3O)[C@H]3COC(=O)[C@H]23)OCO4)cc(OC)c1O` [Etoposide, etoposide, reference compound], the IC50 (H460 cell line; Homo sapiens, NCI-H460, Table S11, MTT, read-out: IC50 Value of chemotherapeutics, H460) is reported as 169 ± 29.2 µM, the IC50 (HEK-293 normal cell line; Homo sapiens, HEK293, Table S11, MTT, read-out: IC50 Value of chemotherapeutics, HEK-293) is reported as 115 ± 14.7 µM and the LDH release ratio (H460 cells [1]) is reported as “no positive results”. For the same compound, the “cells eliminated within 10 h” value (H460 cells [2]) was “≈ 10%”.

With `CC[C@H](C)[C@H](NC(=O)[C@H](CCCCN)NC(=O)[C@@H]1CCCN1C(=O)[C@H](CC(C)C)NC(=O)[C@@H](NC(=O)[C@H](CO)NC(=O)[C@H](CCC(=O)N1CCCCC1)NC(=O)[C@H](CC(C)C)NC(=O)[C@H](CC(=O)O)NC(=O)[C@H](CC(=O)O)NC(=O)[C@H](Cc1ccccc1)NC(=O)[C@@H](NC(=O)[C@H](CCCCN)NC(=O)[C@@H]1CCCN1C(=O)[C@H](Cc1ccccc1)NC(=O)[C@@H](N)Cc1ccccc1)[C@@H](C)CC)[C@@H](C)CC)C(=O)N[C@@H](CC(C)C)C(=O)NCC(=O)N1CCC[C@H]1C(=O)N[C@@H](CC(C)C)C(=O)NCC(=O)N[C@@H](CC(C)C)C(=O)N[C@@H](C)C(=O)NCC(=O)NCCOCCOCCOCCOCCC(=O)NCCOCCOCCOCCOCCC(=O)NCCOCCOCCOCCOCCC(=O)NCCOCCOCCOCCOCCC(N)=O` [compound 209] (H-FFPKIFDDLE(Piperidide)SILPKILGPLGLAG[PEG4][PEG4][PEG4][PEG4]-NH2) the IC50 (H838 cell line) was 84.5 ± 5.91 µM, the IC50 (HMEC-1 normal cell line) was > 100 µM and the IC50 (HT-1080 cell line) was 86.8 ± 49.1 µM. For the same compound, the IC50 (HaCaT normal cell line) was > 100 µM, the IC50 (MRC-5 normal cell line) was > 100 µM and the IC50 (H460 cell line; 24 h) was 53.4 µM. It also gave an IC50 (HEK-293 normal cell line; 24 h) of 98.6 µM, an IC50 [3] of 84.5 ± 4.55 µM and an IC50 [4] of 94.3 µM. The IC50 [5] was > 100 µM, the IC50 [6] was 97.8 µM and the “MMP-cleaved product detection / integrity in H460 medium” value [7] was “remained intact”.
